Results on seven compounds are retold here after patent US11298367B2, “Prodrugs of substituted triazole derivatives and uses thereof” (Bayer Aktiengesellschaft, priority 2017, dated 2022).

One data set can be described thus: Solubility. The data set is classed as physicochemical. To be noted: 24 h room temperature, max. 500 μg/ml; for solubility at 24 h: thermodynamic from solid. The procedure: For each substance 0.5-0.6 mg are weighed exactly. In each case, sufficient medium is added to the sample in such a way that a concentration of c=500 μg/ml is obtained. This sample solution is shaken for 24 h at room temperature and 1400 rpm.
A further sample weight of 0.5-0.6 mg is required for the DMSO calibration solution. This sample is filled with DMSO to a concentration of c=600 μg/ml. Two calibration solutions are prepared from this stock solution. In a 2 ml HPLC vial, 1000 μl of DMSO are initially introduced and 34.4 μl of the stock solution are pipetted (c=20 µg/ml). […] of this solution (c=20 μg/ml) are placed in a further 2 ml HPLC vial containing 500 μl of DMSO (c=2.5 μg/ml).
After shaking the test solutions, 230 μl of the supernatant are transferred into a centrifuge tube and centrifuged at 42 000 rpm (223 000 g) for 30 min. 180 μl of the supernatant are then taken and each diluted with DMSO (1:5 sample 1; 1:100 sample 2), and transferred to HPLC vials. The two calibration solutions and the dilute sample solutions are analyzed by HPLC. Quantification is performed over the corresponding peak areas.
Distilled water; trifluoroacetic acid (Merck; 1.08262.0100); acetonitrile (HPLC grade); DMSO (Merck; 8.02912.2500).
Fluka buffer, Order No. 33643 (11.76 g citric acid, 2.57 g sodium chloride and 2.72 g sodium hydroxide).
Fluka buffer, Order No. 33646 (3.52 g potassium dihydrogenphosphate, 7.26 g sodium hydrogen phosphate).
Solution of 6.18 g sodium chloride and 3.96 g sodium dihydrogen phosphate in 1 L distilled water, adjust with 1M aqueous sodium hydroxide solution to pH 7.4.
0.6057 g TRIS was dissolved in 95 ml water, adjust to pH 8.5 with aqueous hydrochloric acid, fill with water until 100 ml volume is reached.

The next data set deals with T1, human V2 receptor (Homo sapiens, UniProt P30518).
T1 construct: expressed in transfected cells; host or cells: CHO K1 cells expressing firefly luciferase under a CRE-responsive promoter
The data set can be described thus: Cellular in vitro assay for vasopressin receptor activity (V2, CRE-luciferase). It is filed as cell-based. Particulars: CHO cell line with human V2 receptor, [Arg8]-vasopressin at EC50; values are for the prodrug as such; read-out: IC50 hV2. The procedure: (§1) B-1. Cellular In Vitro Assay for Determining Vasopressin Receptor Activity
(§2) The identification of agonists and antagonists of the V1a and V2 vasopressin receptors from humans, rats and dogs as well as the quantification of the activity of the compounds of the invention is carried out using recombinant cell lines. These cell lines originally derive from a hamster's ovary epithelial cell (Chinese Hamster Ovary, CHO K1, ATCC: American Type Culture Collection, Manassas, Va. 20108, USA). The test cell lines constitutively express the human, rat or dog V1a or V2 receptors. In case of the Gaq-coupled V1a receptors, cells are also stably transfected with a modified form of the calcium-sensitive photoproteins aequorin (human and rat V1a) or obelin (dog V1a), which, after reconstitution with the cofactor coelenterazine, emit light when there are increases in free calcium concentrations [Rizzuto R, Simpson A W, Brini M, Pozzan T, Nature 358, 325-327 (1992); Illarionov B A, Bondar V S, Illarionova V A, Vysotski E S, Gene 153 (2), 273-274 (1995)]. The resulting vasopressin receptor cells react to stimulation of the recombinantly expressed Via receptors by intracellular release of calcium ions, which can be quantified by the resulting photoprotein luminescence. The Gs-coupled V2 receptors are stably transfected into cell lines expressing the gene for firefly luciferase under control of a CRE-responsible promoter. Activation of V2 receptors induces the activation of the CRE-responsive promoter via cAMP increase, thereby inducing the expression of firefly luciferase. The light emitted by photoproteins of V1a cell lines as well as the light emitted by firefly luciferase of V2 cell lines corresponds to the activation or inhibition of the respective vasopressin receptor. The bioluminescence of the cell lines is detected using a suitable luminometer [Milligan G, Marshall F, Rees S, Trends in Pharmacological Sciences 17, 235-237 (1996)].
Vasopressin V2 Receptor Cell Lines:
On the day before the assay, the cells are plated out in culture medium (DMEM/F12, 2% FCS, 2 mM glutamine, 10 mM HEPES) in 384-well microtiter plates and kept in a cell incubator (96% humidity, 5% v/v CO2, 37C). On the day of the assay, test compounds in various concentrations and the agonist [Arg^8]-vasopressin at EC50 concentration are added together to the wells, and plates are incubated for 3 hours in a cell incubator. Upon addition of the cell lysis reagent Triton™ and the substrate luciferin, luminescence of firefly luciferase is measured in a luminometer.
(§3) Table 1A below lists individual IC50 values for the compounds of the invention (including racemic mixtures as well as separated enantiomers) that were obtained from cell lines transfected with the human V1a or V2 receptor. This means these IC50 values are the values for the prodrug and not for the underlying respective drug as the prodrug is mainly stable under the assay conditions.

The target in the next data set is T2, human V1a receptor (Homo sapiens, UniProt P37288).
T2 construct: expressed in transfected cells; host or cells: CHO K1 (Chinese hamster ovary), also stably transfected with a modified aequorin
The experiment in a line: Cellular in vitro assay for vasopressin receptor activity (V1a, aequorin luminescence). The data set is classed as cell-based. To be noted: for IC50: CHO cell line with human V1a receptor, [Arg8]-vasopressin at EC50, values are for the prodrug as such, read-out: IC50 hV1a; for ratio IC50 hV2/hV1a: selectivity ratio hV2/hV1a. The procedure: as §1, §2
Vasopressin V1a Receptor Cell Lines:
On the day before the assay, the cells are plated out in culture medium (DMEM/F12, 2% FCS, 2 mM glutamine, 10 mM HEPES, 5 μg/ml coelenterazine) in 384-well microtiter plates and kept in a cell incubator (96% humidity, 5% v/v CO2, 37C). On the day of the assay, test compounds in various concentrations are placed for 10 minutes in the wells of the microtiter plate before the agonist [Arg^8]-vasopressin at EC50 concentration is added. The resulting light signal is measured immediately in a luminometer.
as §3

Setting [1] is: PBS buffer pH 7.4, pH 7.4, aqueous buffer, pH = 7.4 PBS buffer.
Setting [2] is: Tris buffer pH 8.5, pH 8.5, aqueous buffer, pH = 8.5 Tris buffer.
Where [3] appears, read: citrate buffer pH 4, pH 4, aqueous buffer, pH = 4 citrate buffer.

T1 sequence (P30518 whole entry): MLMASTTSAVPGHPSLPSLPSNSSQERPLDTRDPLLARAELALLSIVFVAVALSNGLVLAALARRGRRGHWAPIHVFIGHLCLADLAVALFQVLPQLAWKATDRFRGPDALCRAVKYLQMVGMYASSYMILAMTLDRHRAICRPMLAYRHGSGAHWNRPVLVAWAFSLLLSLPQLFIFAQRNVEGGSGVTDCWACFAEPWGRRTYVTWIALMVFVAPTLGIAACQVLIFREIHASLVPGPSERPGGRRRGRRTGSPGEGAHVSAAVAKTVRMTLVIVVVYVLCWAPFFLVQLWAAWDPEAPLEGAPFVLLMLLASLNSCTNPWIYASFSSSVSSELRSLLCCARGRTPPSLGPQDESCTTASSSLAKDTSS
T2 sequence (P37288 whole entry): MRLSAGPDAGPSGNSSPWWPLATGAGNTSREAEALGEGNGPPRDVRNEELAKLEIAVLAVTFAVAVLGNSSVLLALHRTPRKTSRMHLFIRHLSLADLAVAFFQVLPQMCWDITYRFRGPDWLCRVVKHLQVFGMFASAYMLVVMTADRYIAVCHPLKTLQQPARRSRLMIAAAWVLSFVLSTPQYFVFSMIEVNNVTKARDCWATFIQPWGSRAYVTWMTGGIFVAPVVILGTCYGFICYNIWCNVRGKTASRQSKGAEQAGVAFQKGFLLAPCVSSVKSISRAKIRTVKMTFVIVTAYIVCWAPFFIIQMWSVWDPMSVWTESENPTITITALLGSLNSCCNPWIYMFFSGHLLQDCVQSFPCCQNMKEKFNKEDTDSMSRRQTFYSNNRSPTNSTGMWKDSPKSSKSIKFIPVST

As for `NC(=O)c1nc(Cn2nc(-c3ccc(Cl)cc3)n(C[C@H](OP(=O)([O-])O)C(F)(F)F)c2=O)nn1-c1ncccc1C(F)(F)F.[Li+]` [Example 7, Lithium (2S)-3-[1-({5-carbamoyl-1-[3-(trifluoromethyl)pyridin-2-yl]-1H-1,2,4-triazol-3-yl}-methyl)-3-(4-chlorophenyl)-5-oxo-1,5-dihydro-4H-1,2,4-triazol-4-yl]-1,1,1-trifluoropropan-2-yl Hydrogen Phosphate], the Solubility (usually how much of the substance goes into solution per volume) is >500 µg/mL in “Solubility” (pH = 4 citrate buffer); >500 µg/mL in the data set “Solubility” (pH = 7.4 PBS buffer, Phosphate); >500 µg/mL in the data set “Solubility” (pH = 8.5 Tris buffer, Phosphate). Moreover, the results for the IC50 at human V2 receptor and on human V1a receptor were 160 nM and 8.85 nM, respectively. Moreover, on human V1a receptor (Phosphate), the “ratio IC50 hV2/hV1a” value is recorded as 18.1.

In the case of `NC(=O)c1nc(Cn2nc(-c3ccc(Cl)cc3)n(C[C@H](OP(=O)([O-])O)C(F)(F)F)c2=O)nn1-c1ncccc1Cl.[Na+]` [Example 20, Sodium (2S)-3-[1-{[5-carbamoyl-1-(3-chloropyridin-2-yl)-1H-1,2,4-triazol-3-yl]methyl}-3-(4-chlorophenyl)-5-oxo-1,5-dihydro-4H-1,2,4-triazol-4-yl]-1,1,1-trifluoropropan-2-yl Hydrogen Phosphate], the solubility at 24 h in the data set “Solubility” (setting [1]), in “Solubility” (setting [2]) and in “Solubility” (setting [3]) was > 500 µg/mL throughout. Moreover, the IC50 (as a rule, the point on the concentration scale where inhibition reaches its midpoint) on human V2 receptor stood at 85.5 nM; on human V1a receptor it was 39.5 nM. The “ratio IC50 hV2/hV1a” value at human V1a receptor (Phosphate) turned out to be 2.2.

In the case of `NC(=O)c1nc(Cn2nc(-c3ccc(Cl)cc3)n(C[C@H](OP(=O)([O-])[O-])C(F)(F)F)c2=O)nn1-c1ncccc1C(F)(F)F.[Mg+2]` [Example 9, Magnesium (2S)-3-[1-({5-carbamoyl-1-[3-(trifluoromethyl)pyridin-2-yl]-1H-1,2,4-triazol-3-yl}-methyl)-3-(4-chlorophenyl)-5-oxo-1,5-dihydro-4H-1,2,4-triazol-4-yl]-1,1,1-trifluoropropan-2-yl Phosphate], the solubility (in general, the dissolved amount per volume that the medium holds) at 24 h in “Solubility” (setting [1]) is > 500 µg/mL; in the data set “Solubility” (setting [2]) it was 447 µg/mL; in “Solubility” (setting [3]), > 500 µg/mL. Besides, the figures for the IC50 on human V2 receptor and on human V1a receptor were 225 nM and 14 nM, respectively. Also, on human V1a receptor, the “ratio IC50 hV2/hV1a” value is recorded as 16.1.

In the case of `NC(=O)c1nc(Cn2nc(-c3ccc(Cl)cc3)n(C[C@H](OP(=O)([O-])[O-])C(F)(F)F)c2=O)nn1-c1ncccc1Cl.[Mg+2]` [Example 22, Magnesium (2S)-3-[1-{[5-carbamoyl-1-(3-chloropyridin-2-yl)-1H-1,2,4-triazol-3-yl]methyl}-3-(4-chlorophenyl)-5-oxo-1,5-dihydro-4H-1,2,4-triazol-4-yl]-1,1,1-trifluoropropan-2-yl Phosphate], the solubility at 24 h in “Solubility” (setting [1]), in the data set “Solubility” (setting [2]) and in the data set “Solubility” (setting [3]) was > 500 µg/mL throughout. Moreover, the results for the IC50 on human V2 receptor and at human V1a receptor were 90 nM and 45 nM, respectively. The “ratio IC50 hV2/hV1a” value at human V1a receptor is given as 2.0.

For the compound `NC(=O)c1nc(Cn2nc(-c3ccc(Cl)cc3)n(C[C@H](OP(=O)([O-])O)C(F)(F)F)c2=O)nn1-c1ncccc1C(F)(F)F.[Li+]` [Example 6, Lithium (2S)-3-[1-({5-carbamoyl-1-[3-(trifluoromethyl)pyridin-2-yl]-1H-1,2,4-triazol-3-yl}-methyl)-3-(4-chlorophenyl)-5-oxo-1,5-dihydro-4H-1,2,4-triazol-4-yl]-1,1,1-trifluoropropan-2-yl Hydrogen Phosphate], the solubility at 24 h in the data set “Solubility” (setting [1]) was 464 µg/mL; in the data set “Solubility” (setting [2]), 464 µg/mL; in the data set “Solubility” (setting [3]), > 500 µg/mL. Also, the IC50 at human V2 receptor turned out to be 220 nM; at human V1a receptor, 15.5 nM. For the same compound, the “ratio IC50 hV2/hV1a” value at human V1a receptor (Phosphate) amounted to 14.2.

On to `NC(=O)c1nc(Cn2nc(-c3ccc(Cl)cc3)n(C[C@H](OP(=O)([O-])O)C(F)(F)F)c2=O)nn1-c1ncccc1C(F)(F)F.[Na+]` [Example 4, Sodium (2S)-3-[1-({5-carbamoyl-1-[3-(trifluoromethyl)pyridin-2-yl]-1H-1,2,4-triazol-3-yl}-methyl)-3-(4-chlorophenyl)-5-oxo-1,5-dihydro-4H-1,2,4-triazol-4-yl]-1,1,1-trifluoropropan-2-yl Hydrogen Phosphate], for which the solubility at 24 h in “Solubility” (setting [1]), in the data set “Solubility” (setting [2]) and in the data set “Solubility” (setting [3]) was > 500 µg/mL in each case. Moreover, the IC50 at human V2 receptor amounted to 150 nM; at human V1a receptor, 11.1 nM. In addition, on human V1a receptor (Phosphate), the “ratio IC50 hV2/hV1a” value came to 13.5.

Take `NC(=O)c1nc(Cn2nc(-c3ccc(Cl)cc3)n(C[C@H](OP(=O)([O-])O)C(F)(F)F)c2=O)nn1-c1ccccc1C(F)(F)F.[K+]` [Example 11, Potassium (2S)-3-[1-({5-carbamoyl-1-[2-(trifluoromethyl)phenyl]-1H-1,2,4-triazol-3-yl}methyl)-3-(4-chlorophenyl)-5-oxo-1,5-dihydro-4H-1,2,4-triazol-4-yl]-1,1,1-trifluoropropan-2-yl Hydrogen Phosphate]: the IC50 at human V2 receptor turned out to be 37 nM; on human V1a receptor, 40.5 nM. At human V1a receptor (Phosphate), the “ratio IC50 hV2/hV1a” value is listed as 0.9.
